The text below walks through data of ChEMBL document CHEMBL1201862, “PubChem BioAssay data set” (2004).

Among the test systems are HL-60; SK-MEL-28; SN12C; UO-31; HOP-62; K562; HOP-18; NCI-H23; CCRF-CEM; SF-295; HCT-15; SF-539; OVCAR-8; HCT-116; LXFL 529; ACHN; MDA-MB-435; NCI/ADR-RES; T47D; BT-549.
What all share (test): NCI anticancer screen, dose series, 48 h

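Method: 48-hour compound exposure of cells in 96-well plates, five concentrations, linear interpolation of endpoints. Here, GI50 denotes the concentration required for 50% inhibition of growth.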 Active and inactive are the calls of the source. Cut-off read from the data, not from the text of the source: active = GI50 up to about 1.1 µM and inactive = higher. Some results are limits rather than exact numbers.

As to `Cc1nc(-c2cccnc2)sc1C(=O)/C=C/c1cccc([N+](=O)[O-])c1`, the GI50 in the test on HL-60, with SK-MEL-28, in the test with SN12C, in the test on UO-31, in the test with HOP-62 and with K562 was > 100 µM (inactive) each time. The GI50 in the test with HOP-18 is > 100 µM (inactive); in the test on NCI-H23 it was > 100 µM (inactive); with CCRF-CEM, > 100 µM (inactive); in the test with SF-295 it was > 100 µM (inactive); with HCT-15, > 100 µM; with SF-539 it was > 100 µM (inactive). In addition, the GI50 with OVCAR-8 was > 100 µM (inactive).
As for `COc1cc2ccc1-c1cc(ccc1O)CC1c3cc4c(cc3CCN1C)Oc1c(OC)cc3c(c1O4)C(C2)N(C)CC3` (configuration not stated), the GI50 in the test on HL-60 was 2.16 µM (inactive); in the test on SK-MEL-28 it was 1.52 µM (inactive); in the test on SN12C it was 2.08 µM (inactive); with UO-31 it was 1.8 µM (inactive); in the test with HOP-62, 1.93 µM (inactive); with HCT-116, 1.46 µM (inactive). In addition, the GI50 is 1.44 µM (inactive) in the test with K562; 1.99 µM (inactive) in the test on NCI-H23; 2.19 µM (inactive) with CCRF-CEM; 1.81 µM (inactive) with SF-295; 1.68 µM in the test with HCT-15; 1.84 µM (inactive) in the test with LXFL 529. The GI50 in the test on SF-539 was 1.79 µM (inactive); with ACHN, 2 µM (inactive); in the test on OVCAR-8 it was 1.87 µM (inactive).
For the compound `COC(=O)C(C#N)C1NC(=O)c2ccccc21` (configuration not stated), the GI50 in the test with HL-60, in the test with SK-MEL-28, with SN12C, in the test with UO-31, in the test on HOP-62 and in the test on HCT-116 was > 100 µM (inactive) in each case. The GI50 with K562 is > 100 µM (inactive); in the test on HOP-18, > 100 µM (inactive); with NCI-H23, > 100 µM (inactive); in the test on CCRF-CEM, > 100 µM (inactive); in the test with SF-295 it was > 100 µM (inactive); with HCT-15, > 100 µM. For the same compound, the GI50 in the test on SF-539, with ACHN and in the test with OVCAR-8 was > 100 µM (inactive) each time.
On to `C=C1C(OC(C)=O)CC(OC(C)=O)C2(C)C(OC(C)=O)C(OC(C)=O)C3=C(C)C(OC(=O)/C=C/c4ccccc4)CC(C(OC(C)=O)C12)C3(C)C` (configuration not stated), for which the GI50 in the test on HL-60 was > 100 µM (inactive); with SN12C, > 100 µM (inactive); in the test with UO-31, > 100 µM (inactive); in the test with HOP-62, 31 µM (inactive); in the test with HCT-116 it was > 100 µM (inactive); with K562 it was > 100 µM (inactive). For the same compound, the GI50 with HOP-18 was 51.1 µM (inactive); in the test on CCRF-CEM it was > 100 µM (inactive); in the test with SF-295 it was 23.9 µM (inactive); with HCT-15, > 100 µM; in the test on LXFL 529, 51.9 µM (inactive); in the test with SF-539 it was 25.5 µM (inactive). Besides, the figures for the GI50 in the test with ACHN and with OVCAR-8 were 35.5 µM (inactive) and 46.3 µM (inactive), respectively.
In the case of `COc1ccc(/C(=N/O)C(c2ccc(OC)cc2)C2C(=O)Oc3ccccc32)cc1` (configuration not stated), the GI50 is 52.5 µM (inactive) in the test with HL-60; 78.2 µM (inactive) with SK-MEL-28; 84.7 µM (inactive) in the test on SN12C; 35.5 µM (inactive) in the test with UO-31; 58.6 µM (inactive) with HCT-116; 71.4 µM (inactive) with K562. Further, the GI50 in the test on HOP-18 was > 100 µM (inactive); in the test with NCI-H23 it was 40.3 µM (inactive); with CCRF-CEM, > 100 µM (inactive); in the test with SF-295, 3.13 µM (inactive); in the test on HCT-15 it was 71.6 µM; with LXFL 529, 36.3 µM (inactive). Further, the GI50 was > 100 µM (inactive) in the test with SF-539, 70.6 µM (inactive) in the test with ACHN and 61.7 µM (inactive) in the test with OVCAR-8.
In the case of `C1=CC=C2NCCSCC/N=C3/C=CC=CC=C3NCCSCC/N=C\2C=C1`, the GI50 in the test with HL-60, in the test on SK-MEL-28, in the test on SN12C, with UO-31, in the test on HOP-62 and in the test with HCT-116 was > 100 µM (inactive) each time. Moreover, the GI50 in the test on K562 was > 100 µM (inactive); with HOP-18, > 100 µM (inactive); in the test on NCI-H23, > 100 µM (inactive); with CCRF-CEM, > 100 µM (inactive); with SF-295, > 100 µM (inactive); with HCT-15, > 100 µM. For the same compound, the GI50 in the test on LXFL 529, with ACHN and in the test on OVCAR-8 was > 100 µM (inactive) each time.
For the compound `N#CC(c1nc2ccccc2nc1Cl)S(=O)(=O)c1ccccc1` (configuration not stated), the GI50 is > 100 µM (inactive) with HL-60; > 100 µM (inactive) in the test on SK-MEL-28; 39.8 µM (inactive) in the test with SN12C; 43.8 µM (inactive) in the test with UO-31; > 100 µM (inactive) in the test on HOP-62; > 100 µM (inactive) in the test with HCT-116. The GI50 in the test on K562 is 34.3 µM (inactive); with NCI-H23, 37.5 µM (inactive); with CCRF-CEM, 30.1 µM (inactive); in the test on HCT-15 it was 54.1 µM; in the test with LXFL 529 it was 46.6 µM (inactive); in the test on SF-539 it was > 100 µM (inactive). Also, the GI50 is > 100 µM (inactive) with ACHN and 74 µM (inactive) in the test with OVCAR-8.
Turning to `CN(C)CCC1(C2=CCCC2)CC/C(=C\c2ccccc2Cl)C1=O` (configuration not stated), the GI50 with HL-60 was 4.41 µM (inactive); with SK-MEL-28, 13.1 µM (inactive); in the test with SN12C it was 13.4 µM (inactive); with UO-31, 7.24 µM (inactive); with HCT-116, 8.41 µM (inactive); in the test with K562, 3.75 µM (inactive). Moreover, the GI50 was 12.4 µM (inactive) in the test with HOP-18; 15.2 µM (inactive) in the test with NCI-H23; 9.25 µM (inactive) in the test with CCRF-CEM; 14.6 µM (inactive) with SF-295; 5.85 µM with HCT-15; 11.5 µM (inactive) in the test with LXFL 529. Also, the results for the GI50 with SF-539, in the test with ACHN and in the test with OVCAR-8 were 15.2 µM (inactive), 17.3 µM (inactive) and 15 µM (inactive), respectively.
On to `O=C(N/N=C(\c1nc2ccc(Cl)cc2nc1O)C(O)c1ccccc1Cl)c1ccncc1` (configuration not stated), for which the GI50 in the test on HL-60, in the test on SK-MEL-28, in the test with UO-31, in the test with HCT-116, in the test on K562 and in the test with HOP-18 was > 100 µM (inactive) in each case. The GI50 in the test with NCI-H23 was > 100 µM (inactive); in the test on CCRF-CEM, > 100 µM (inactive); in the test with SF-295 it was > 100 µM (inactive); in the test with HCT-15, > 100 µM; in the test on LXFL 529 it was > 100 µM (inactive); with SF-539 it was > 100 µM (inactive). Besides, the GI50 in the test with ACHN was > 100 µM (inactive).
`CC(=O)/C=C\C(=O)NNS(=O)(=O)c1ccc(C)cc1`: the GI50 in the test on HL-60, in the test on SK-MEL-28, in the test with SN12C, in the test on UO-31, in the test with HOP-62 and with HCT-116 was > 100 µM (inactive) each time. For the same compound, the GI50 was > 100 µM (inactive) with K562; > 100 µM (inactive) in the test with NCI-H23; > 100 µM (inactive) in the test with CCRF-CEM; > 100 µM (inactive) with SF-295; > 100 µM in the test with HCT-15; > 100 µM (inactive) in the test with LXFL 529. For the same compound, the GI50 in the test on SF-539, with ACHN and in the test on OVCAR-8 was > 100 µM (inactive) throughout.
Turning to `C/C(=N\Nc1ccccc1)C(CN(C)C)C(c1ccccc1)c1c(O)c2ccccc2oc1=O` (configuration not stated), the GI50 in the test with HL-60 is > 59.8 µM (inactive); in the test on SK-MEL-28 it was > 100 µM (inactive); in the test with MDA-MB-435, > 100 µM (inactive); in the test on SN12C, > 100 µM (inactive); in the test on NCI/ADR-RES, > 100 µM (inactive); in the test on T47D, 89.3 µM (inactive). Moreover, the GI50 in the test with UO-31 is > 100 µM (inactive); with HOP-62, > 100 µM (inactive); in the test with HCT-116 it was > 100 µM (inactive); in the test with K562, > 100 µM (inactive); in the test with NCI-H23, > 100 µM (inactive); with CCRF-CEM it was > 83.8 µM (inactive). Moreover, the GI50 was > 100 µM (inactive) in the test on SF-295; > 100 µM in the test on HCT-15; > 100 µM (inactive) with LXFL 529; > 100 µM (inactive) in the test with SF-539; > 100 µM (inactive) in the test on BT-549; > 100 µM (inactive) in the test with ACHN. For the same compound, the GI50 in the test with OVCAR-8 was > 100 µM (inactive).
For `COC(=O)CC(C(C(=O)OCc1ccccc1)C(C)O)N1C(=O)OCC1c1ccccc1` (configuration not stated), the GI50 is 34.2 µM (inactive) with HL-60; > 100 µM (inactive) with SK-MEL-28; > 100 µM (inactive) in the test with SN12C; 24.3 µM (inactive) with UO-31; > 100 µM (inactive) in the test with HOP-62; > 100 µM (inactive) in the test on HCT-116. In addition, the GI50 in the test on K562 was 34.4 µM (inactive); in the test on NCI-H23, 60.1 µM (inactive); in the test on CCRF-CEM, 49 µM (inactive); with SF-295 it was 45 µM (inactive); in the test with HCT-15, > 100 µM; with LXFL 529 it was 56.1 µM (inactive). The GI50 was > 100 µM (inactive) with SF-539, 63.2 µM (inactive) in the test on ACHN and 91.6 µM (inactive) with OVCAR-8.
Turning to `CN(C)Cc1cc(/C(=C(\C#N)c2ccccc2)c2ccc(O)cc2)ccc1O`, the GI50 in the test on SK-MEL-28 was 13.6 µM (inactive); in the test with SN12C it was 18.3 µM (inactive); with UO-31, 20.4 µM (inactive); in the test on HOP-62 it was 14.4 µM (inactive); in the test on HCT-116, 10.2 µM (inactive); with K562, 20 µM (inactive). The GI50 in the test with HOP-18 was 19.9 µM (inactive); in the test with NCI-H23 it was 19.1 µM (inactive); in the test with CCRF-CEM, 18.4 µM (inactive); in the test on SF-295, 18.4 µM (inactive); in the test on HCT-15, 25.4 µM; in the test on LXFL 529, 18.2 µM (inactive). Further, the GI50 in the test on ACHN is 13.9 µM (inactive); in the test with OVCAR-8 it was 19.1 µM (inactive).
